Laboratory results from article PMC3664642, “A Peptide against Soluble Guanylyl Cyclase α1: A New Approach to Treating Prostate Cancer” (PLoS ONE, 2013).
“Also recorded” adds a separate entry of the source.

How the values were obtained:
LNCaP cells [1] = assay: Dependence of cytotoxicity on NO signaling, LNCaP cells (MTT); format: cell-based; conditions: for effect of C-PTIO on cytotoxicity of Peptide A-8R: Fig. S1D
Protocol: (§1) For proliferation, cells were grown in medium containing 2% FBS extracted with dextran-coated charcoal (DCC). 48 hours later, ethanol or 1 nM R1881 was added to the cells followed by peptide treatment. The MTT assay (Sigma) was used as before to determine cell number. For apoptosis, 5000 cells were seeded in 96-well plates and treated with Vehicle (DMSO), Peptide A-8R (25 µM), Etoposide (50 µM) (Sigma) at different time points. The Caspase (3/7) activity was measured using Apo-ONE Homogeneous Caspase-3/7 assay kit (Promega). PARP cleavage was also used to measure apoptosis, and is described below.
(§2) (A) Whole-cell extracts from LNCaP cells treated with Vehicle, Peptide A-8R, or C-8R were subjected to IP using an anti-sGCα1 or anti-sGCβ1 antibody and then probed by Western blotting for sGCα1 (Upper) or sGCβ1 (Lower). Input represents amount of sGCα1 or sGCβ1 found in extracts. (B) LNCaP cells grown in the absence or presence of 1 nM R1881 were treated with Vehicle, 20 µM Peptide A-8R, 20 µM C-8R, or 8-Br-cGMP and monitored for cGMP levels using the cGMP E1A kit (Enzo Life Sciences). (C) LNCaP cells grown in the absence or presence of 8-Br-cGMP were treated with Vehicle, Peptide A-8R, or ODQ and monitored for cell density using the MTT assay. (D) LNCaP cells were treated with Vehicle or different concentrations of Peptide A-8R and C-PTIO and monitored for cell density. Bar graphs represent averages of three independent experiments plus standard deviations. Asterisks indicate statistical significance (P<0.04). (TIF) Click here for additional data file.

C81 cells [2] = assay: NAC rescue of proliferation of Peptide A-8R-treated cells (MTT); format: cell-based; conditions: for NAC rescue of proliferation: C81, NAC 1 or 5 mM, 2 h pretreatment, 0–6 days
Protocol: as §1
Intracellular ROS levels were evaluated using the fluorescent probe 5-(and-6)-chloromethyl-2′,7′-dichlorodihydrofluorescein diacetate (CM-H2DCFDA) (Invitrogen). After treatments with Peptide A-8R, C81 cells were loaded with 20 µM CM-H2DCFDA and incubated at 37°C for 30 min in the dark. Cells were then washed with PBS and fluorescence was measured at the excitation and emission wavelengths of 490 and 535 nm, respectively, using a multi-well fluorescence plate reader. For NAC (N-acetyl cysteine) (Sigma) rescue experiment, cells were pretreated with 1 or 5 mM NAC for 2 hours before adding Peptide A-8R.
(§3) Figure 4 Peptide A-8R kills prostate cancer cells by mediating ROS generation. (A) C81 cells were treated with Vehicle or different µMolar concentrations of Peptide A-8R and without or with 0–5 mM NAC and monitored for ROS generation after 0–30 min as measured by fluorescence intensity (FI). Bar graphs represent averages of three independent experiments plus standard deviations. Note that asterisks on bar graphs found with NAC are compared to equivalent data without NAC. (B) C81 cells were treated with Vehicle or different concentrations of Peptide A-8R, as shown, and 0–5 mM NAC, as shown, and monitored for cell number after 0–6 days of incubation as measured by MTT assay. Data points represent averages of three independent experiments plus standard deviations. Asterisks indicate statistical significance (P<0.04). (C) C81 cells were treated with Vehicle or different concentrations of Peptide A-8R, as shown, and with or without 5 mM NAC, as shown, and monitored DNA damage after 1 hr incubation as measured by Comet assay.

DNA damage in C81 cells = assay: Comet assay (DNA damage); format: cell-based; conditions: 5 mM NAC, 2-hour pretreatment; Fig. 4C
Protocol: C81 cells were treated with Peptide A-8R for 1 hour, following a 2-hour pretreatment with 5 mM NAC or Vehicle, and trypsinized, and mixed with Comet LM-Agarose (CometAssay, […]) and transferred to slides. Electrophoresis and Sybr-Green staining was carried out according to manufacturer’s protocol.
as §3

C81 cells [3] = assay: DAPI DNA staining, C81 cells; format: cell-based; conditions: 5 mM NAC, 2 hrs, Fig. S6
Protocol: C81 cells were first treated with or without 5 mM NAC for 2 hrs and then Vehicle or different concentrations of Peptide A-8R, as shown, for 1 hr and stained with DAPI. Phase contrast images are shown. (TIF) Click here for additional data file.

[4] = system: Caspase 3/7 activity in LNCaP cells; assay: Caspase 3/7 assay, LNCaP cells; format: cell-based; conditions: Peptide 10 µM, Etoposide 20 µM, 24 hrs, Fig. 5A
Protocol: as §1
Figure 5 Peptide A-8R induces apoptosis of prostate cancer cells. (A) LNCaP, (B) PC-3, or (C) Cos cells were treated with Vehicle, Peptide A-8R (10 µM), or Etoposide (20 µM) for 0–24 hrs and subjected to a Caspase assay to measure apoptosis. Bar graphs represent averages of three independent experiments plus standard deviations. All activities are relative to the first condition, and this activity was set to 1. Asterisks indicate statistical significance (P<0.005). (D) LNCaP cells were treated with Vehicle, Peptide C-8R, Peptide A-8R, or Etoposide (each drug at 50 µM) for 8 hrs and monitored for apoptosis by measuring PARP cleavage using Western blotting. Note that β-actin was used to control for protein loading.
Supplementary file pone.0064189.s005.tif: Figure S5 ROS generation is not induced by Peptide A-8R in PC-3 cells and Peptide C-8R in LNCaP cells. (A) PC-3 cells were treated with Vehicle or different concentrations of Peptide A-8R or Peptide C-8R, as shown, or (B) LNCaP cells were treated with Vehicle or different concentrations of Peptide A-8R or Peptide C-8R, or H2O2 and monitored for ROS generation after 0–30 (A) or 30 (B) min. (C) LNCaP cells were treated with Vehicle, Peptide C-8R (10 µM), Peptide A-8R (10 µM), or Etoposide (100 µM) for 0–8 hrs and subjected to a Caspase assay to measure apoptosis. Bar graphs represent averages of three independent experiments plus standard deviations. (C) All activities are relative to the first condition, and this activity was set to either 1. Asterisks indicate statistical significance (P<0.006) of all values compared to Vehicle (B) or to 0 hour (C). (TIF) Click here for additional data file.

tumor cell = conditions: ref [16], [17]; cited from earlier work
Excerpt: In view of the rapid cytotoxicity induced by Peptide A (data not shown), we examined the possibility that ROS was involved.

LNCaP cells [5] = assay: Proliferation/cytotoxicity, LNCaP cells (MTT); format: cell-based; conditions: PI3K-AKT inhibitor; MTT; Fig. S3A; averages of three independent experiments
Protocol: LNCaP, C81, PC-3 and Cos cells were grown as previously described. CWR-22Rv1 cells were cultured in RMPI-1640 medium with 10% FBS and 50 µg/ml Gentamicin (Gibco). Control siRNA, sGCα1 siRNA and AKT siRNA (Dharmacon) at 50 nM final concentration was transfected into cells using Lipofectamine siMAX (Invitrogen).
as §1
(A) Four peptides were designed targeting sGCα1, with each peptide containing eight arginines at the C-terminus for membrane translocation. (B) LNCaP cells were grown in 10% serum under different concentrations of the four peptides, as shown. Cell number was measured after 0–4 days of incubation. Data points represent averages of three independent experiments plus standard deviations. Asterisks indicate statistical significance (P<0.0002) of Peptide A activity, relative to Vehicle.
Figure 2 Peptide A-8R interacts with sGCα1 in prostate cancer cells. (A) LNCaP cells were treated with 25 µM Biotin-labeled Peptide A-8R for 2 hrs and subjected to immunocytochemistry using anti-sGCα1 or anti-Biotin antibody to measure subcellular co-localization of endogenous sGCα1 and Peptide A-8R. DAPI was used to stain nuclei. (B) LNCaP cytosolic extracts were incubated with Peptide A-8R-Biotin and subjected to purification using streptavidin-agarose. This pull-down experiment was repeated with competing excess amount of unlabeled Peptide C-8R or Peptide A-8R. […] Co-purified Peptide A-8R-FITC was quantified by measuring fluorescence signal emission. […] Cell number was measured after 0–48 hrs of incubation. […]

sGC = assay: cGMP levels in LNCaP cells (ELISA); format: cell-based; conditions: 1 nM R1881 absent or present, 20 µM peptide, cGMP EIA kit, Fig. S1B
Protocol: as §2

Q: Which “effect of added agent on Vehicle- or Peptide A-8R-treated cells (cell density)” value (LNCaP cells [1]; MTT, Fig. S1C) does the source give for `Nc1nc2c(nc(Br)n2[C@@H]2O[C@@H]3COP(=O)(O)O[C@H]3[C@H]2O)c(=O)[nH]1` [Peptide 8-Br-cGMP] here?
A: had no effect on Vehicle- or Peptide A-8R-treated cells

Q: What about the “rescue of ODQ-treated cells (cell density)” value (LNCaP cells [1]; MTT, ODQ-treated, Fig. S1C) of the same molecule?
A: able to partially rescue cells treated with the sGC enzyme inhibitor ODQ

Q: For `CC(=O)N[C@@H](CS)C(=O)O` [NAC, N-acetyl cysteine], which “NAC rescue of proliferation” value (C81 cells [2]; 10 µM Peptide A-8R, Fig. 4B (P<0.04)) is on record?
A: able to completely rescue the proliferation

Q: And the “NAC rescue of proliferation” value (C81 cells [2]; 25 µM Peptide A-8R, Fig. 4B (P<0.04))?
A: nearly completely

Q: What about the “NAC rescue of proliferation” value (C81 cells [2]; 50 µM Peptide A-8R, Fig. 4B) of the same molecule?
A: failed to significantly rescue the growth; also recorded: only marginally rescued

Q: And the “NAC rescue (discussion)” value (C81 cells [2]; 10 and 25 µM Peptide A-8R)?
A: strong rescue

Q: What about the “inhibition of Peptide A-8R-induced DNA damage” value (DNA damage in C81 cells) of the same molecule?
A: completely blocked

Q: And the “effect of NAC on cells treated with 50 µM Peptide A-8R (DAPI)” value (C81 cells [3])?
A: had no effect

Q: With `COc1cc([C@@H]2c3cc4c(cc3[C@@H](O[C@@H]3O[C@@H]5CO[C@@H](C)O[C@H]5[C@H](O)[C@H]3O)[C@H]3COC(=O)[C@H]23)OCO4)cc(OC)c1O` [Etoposide, reference compound] as the molecule, how does the “Caspase 3/7 activity” value [4] read?
A: induced similar levels of Caspase activity as did Peptide A-8R, but only after 24 hrs of treatment

Q: With `N.N.[Cl][Pt][Cl]` [cisplatin] as the molecule, how does the “tumor cell death by elevating ROS” value (tumor cell) read?
A: induce tumor cell death by elevating levels of reactive oxygen species

Q: Which LNCaP cell proliferation (LNCaP cells [5]) does the source give for `O=c1cc(N2CCOCC2)oc2c(-c3ccccc3)cccc12` [LY294002, reference compound] here?
A: dramatically repressed LNCaP cell proliferation

Q: For `CC1(C)N([O])C(c2ccc(C(=O)O)cc2)=[N+]([O-])C1(C)C` [C-PTIO], which “effect of C-PTIO on cytotoxicity of Peptide A-8R” value (LNCaP cells [1]; Peptide A-8R at 50 µM) is on record?
A: interestingly not 50 µM

Q: What about the “effect of C-PTIO on cytotoxicity of Peptide A-8R” value (LNCaP cells [1]; Peptide A-8R at 10 and 25 µM, P<0.04) of the same molecule?
A: enhanced rather than relieved the cytotoxicity of Peptide A-8R at 10 and 25 µM

Q: Which cGMP levels (sGC) does the source give for `C[C@]1(O)CC[C@H]2[C@@H]3CCC4=CC(=O)CCC4=C3C=C[C@@]21C` [Peptide R1881, reference compound] here?
A: markedly elevated cGMP levels

Q: Which “tumor cell death by elevating ROS” value (tumor cell) does the source give for `COc1cccc2c1C(=O)c1c(O)c3c(c(O)c1C2=O)C[C@@](O)(C(=O)CO)C[C@@H]3O[C@H]1C[C@H](N)[C@H](O)[C@H](C)O1` [doxorubicin] here?
A: induce tumor cell death by elevating levels of reactive oxygen species
